Test results taken from US20050148631A1, “Amino heterocyclyl inhibitors of 11-beta-hydroxy steroid dehydrogenase type 1” (AGOURON PHARMACEUTICALS, INC., priority 2003, published 2005).
Where two headings read alike, the source gives them in different places.

Molecular target: 11β-hsd-1 enzyme (Homo sapiens, UniProt P28845)
Experiment: 11β-hsd-1 enzyme assay, percentage of inhibition (3H-cortisone to cortisol, radio-HPLC)
Type: biochemical
Settings: for inhibition at 0.1 µM: read-out: % inh @ 0.1 uM

11β-hsd-1 enzyme, sequence (P28845 whole entry, species assumed): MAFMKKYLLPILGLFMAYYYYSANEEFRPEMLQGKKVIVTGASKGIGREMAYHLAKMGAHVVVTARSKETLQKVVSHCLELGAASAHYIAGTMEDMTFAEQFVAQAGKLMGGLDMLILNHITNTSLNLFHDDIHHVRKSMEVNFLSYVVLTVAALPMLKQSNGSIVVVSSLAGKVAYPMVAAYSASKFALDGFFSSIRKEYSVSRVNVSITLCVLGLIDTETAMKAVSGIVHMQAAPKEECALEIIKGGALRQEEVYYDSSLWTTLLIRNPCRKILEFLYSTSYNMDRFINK

| Structure (SMILES) | inhibition at 0.1 µM (0.1 uM) [%] | further results |
| --- | --- | --- |
| C=CCN(C)C(=O)Cc1cccc(NS(=O)(=O)c2cccc(Cl)c2C)n1 [Example 16] | 10.9 |  |
| Cc1ccnc(NS(=O)(=O)c2ccc(-c3ccccc3)cc2)n1 [Example 59] | 3.8 |  |
| Cc1cccc(NS(=O)(=O)c2ccc(-c3ccccc3C)c(C)c2)n1 [Example 218] |  | inhibition at 0.1 µM (compound at 0.1 uM): 56% |
| Cc1cccc(NS(=O)(=O)c2ccc(-c3cccc(C#N)c3)c(C)c2)n1 [Example 220] |  | inhibition at 0.1 µM (compound at 0.1 uM): 67% |
| Cc1cccc(NS(=O)(=O)N2CCN3CCC[C@H]3C2)n1 [Example 302] |  | inhibition at 0.1 µM (compound at 0.1 uM): 18.1% |
| Cc1c(Cl)cccc1S(=O)(=O)Nc1cccc(CC(=O)NC23CC4CC(CC(C4)C2)C3)n1 [Example 27, N-Adamantan-1-yl-2-[6-(3-chloro-2-methyl-benzenesulfonylamino)-pyridin-2-yl]-acetamide] | 1.9 |  |
| Cc1cccc(NS(=O)(=O)c2ccc(-c3cccc(C(F)(F)F)c3)cc2)n1 [Example 130] | 78.9 |  |
| Cc1cccc(NS(=O)(=O)c2ccc(-c3ccc(F)cc3C)c(C)c2)n1 [Example 242] |  | inhibition at 0.1 µM (compound at 0.1 uM): 61% |
| Cc1cccc(NS(=O)(=O)c2ccc(-c3cc(F)c(F)c(F)c3)cc2)n1 [Example 152] | 72.7 |  |
| CCc1ccc(-c2ccc(S(=O)(=O)Nc3cccc(C)n3)cc2C)cc1 [Example 235] |  | inhibition at 0.1 µM (compound at 0.1 uM): 87% |
| Cc1cccc(NS(=O)(=O)c2ccc(N3CCCCC3)nc2)n1 [Example 269, N-(6-methylpyridin-2-yl)-6-piperidin-1-ylpyridine-3-sulfonamide] |  | inhibition at 0.1 µM (compound at 0.1 uM): 2.4% |
| Cc1cccc(NS(=O)(=O)c2ccc(-c3ncccn3)nc2)n1 [Example 261] |  | inhibition at 0.1 µM (compound at 0.1 uM): 2.6% |
| Cc1cc(C)nc(NS(=O)(=O)c2ccc(C(F)(F)F)cc2)c1 [Example 77] | 35.4 |  |
| COC(=O)c1cccc(NS(=O)(=O)c2ccc(-c3ccc(C#N)cc3)cc2)n1 [Example 7] | 7.7 |  |
| Cc1cccc(NS(=O)(=O)c2ccc(-c3cccc(COc4ccccc4)c3)cc2)n1 [Example 155] | 83.3 |  |
| COc1ccc(-c2ccc(S(=O)(=O)Nc3cccc(C)n3)cc2C)cc1F [Example 231] |  | inhibition at 0.1 µM (compound at 0.1 uM): 63% |
| Cc1cccc(NS(=O)(=O)c2ccc(F)cc2F)n1 [Example 55] | 7.4 |  |
| O=S(=O)(Nc1ccc2cc[nH]c2c1)c1ccc(-c2ccc(F)cc2)cc1 [Example 57] | 4.5 |  |
| N#Cc1ccc(-c2ccc(S(=O)(=O)Nc3cc(O)c4ccccc4n3)cc2)cc1 [Example 105] | 16.9 |  |
| CCOc1ccc(-c2ccc(S(=O)(=O)Nc3cccc(C)n3)cc2C)cc1 [Example 229] |  | inhibition at 0.1 µM (compound at 0.1 uM): 9% |
| Cc1cccc(NS(=O)(=O)Cc2ccc(C(F)(F)F)cc2)n1 [Example 73] | 17.3 |  |
| Cc1cccc(NS(=O)(=O)c2cccc3ccccc23)n1 [Example 51] | 10.2 |  |
| Cc1cccc(NS(=O)(=O)c2ccc(-c3ccc(OCCN)cc3)cc2)n1 [Example 263, 4′-(2-Amino-ethoxy)-biphenyl-4-sulfonic acid (6-methyl-pyridin-2-yl)-amide] |  | inhibition at 0.1 µM (compound at 0.1 uM): 11.8% |
| O=S(=O)(Nc1ccc2nc[nH]c2c1)c1ccc(-c2ccc(F)cc2)cc1 [Example 60] | 31.9 |  |
| Cc1cccc(NS(=O)(=O)c2ccc(-c3ccc4c(c3)OCCO4)c(C)c2)n1 [Example 245] |  | inhibition at 0.1 µM (compound at 0.1 uM): 62% |
| Cc1cccc(NS(=O)(=O)Cc2ccc(Cl)c(Cl)c2)n1 [Example 74] | 28.9 |  |
| COc1ccc(-c2ccc(S(=O)(=O)Nc3cccc(C)n3)cc2)c(C)c1 [Example 255] |  | inhibition at 0.1 µM (compound at 0.1 uM): 64.6% |

| Structure (SMILES) | inhibition at 0.1 µM (0.1 uM) [%] | further results |
| --- | --- | --- |
| CC(=O)Nc1ccc(-c2ccc(S(=O)(=O)Nc3cccc(C)n3)cc2)cc1 [Example 149] | 20.4 |  |
| Cc1c(Cl)cccc1S(=O)(=O)Nc1cccc(CC(=O)N(CCC#N)C2CC2)n1 [Example 29] | 10.9 |  |
| Cc1cccc(NS(=O)(=O)c2ccc(-c3ccc(O)cc3)cc2C)n1 [Example 199] |  | inhibition at 0.1 µM (compound at 0.1 uM): 55% |
| Cc1cccc(NS(=O)(=O)c2ccc(-c3ccccc3C(F)(F)F)cc2)n1 [Example 122] | 85.7 |  |
| Cc1cccc(NS(=O)(=O)c2ccc(-c3cn[nH]c3)cc2)n1 [Example 250] |  | inhibition at 0.1 µM (compound at 0.1 uM): 17% |
| Cc1cccc(NS(=O)(=O)c2ccc(-c3ccc(C(N)=O)cc3)cc2)n1 [Example 262, 4′-(6-Methyl-pyridin-2-ylsulfamoyl)-biphenyl-4-carboxylic acid amide] |  | inhibition at 0.1 µM (compound at 0.1 uM): 45.7% |
| Cc1cc(N)nc(NS(=O)(=O)c2ccc(-c3ccc(C#N)cc3)cc2)c1 [Example 113, 4′-Cyano-biphenyl-4-sulfonic acid (6-amino-4-methyl-pyridin-2-yl)-amide] | 100 |  |
| COc1cccc(NS(=O)(=O)c2ccc(-c3ccc(C#N)cc3)cc2)n1 [Example 78] | 8.2 |  |
| Cc1cccc(NS(=O)(=O)N2CCC(c3ccncc3)C2)n1 (stereo not drawn) [Example 297, 3-Pyridin-4-yl-pyrrolidine-1-sulfonic acid (6-methyl-pyridin-2-yl)-amide] |  | inhibition at 0.1 µM (compound at 0.1 uM): 3.4% |
| Cc1cccc(NS(=O)(=O)c2ccc(C#N)cc2Cl)n1 [Example 53] | 10.1 |  |
| Cc1cc(C)c2ccc(NS(=O)(=O)c3ccc(-c4ccc(C#N)cc4)cc3)nc2n1 [Example 106] | 5.4 |  |
| Cc1c(S(=O)(=O)Nc2cccc(CN(C)C)n2)sc2ccc(Cl)cc12 [Example 84] | 26.4 |  |
| Cc1c(Cl)cccc1S(=O)(=O)Nc1cccc(NC(=O)C2CCCN2)n1 (stereo not drawn) [Example 296, Pyrrolidine-2-carboxylic acid [6-(3-chloro-2-methyl-benzenesulfonylamino)-pyridin-2-yl]-amide] |  | inhibition at 0.1 µM (compound at 0.1 uM): 16% |
| Cc1cccc(NS(=O)(=O)c2ccc(N3CCOCC3)nc2)n1 [Example 83] | 11.1 |  |
| CCCCc1ccc(-c2ccc(S(=O)(=O)Nc3cccc(C)n3)cc2C)cc1 [Example 246] |  | inhibition at 0.1 µM (compound at 0.1 uM): 65% |
| Cc1cccc(NS(=O)(=O)c2ccc(-c3ccc(O)cc3)cc2)n1 [Example 252] |  | inhibition at 0.1 µM (compound at 0.1 uM): 44% |
| Cc1cc(C)nc(NS(=O)(=O)c2ccc(C(F)(F)F)cc2)c1 [Example 45] |  | % inh @ 0.1 uM (0.1 uM): 35% |
| Cc1cccc(NS(=O)(=O)c2ccc3oc4ccccc4c3c2)n1 [Example 63] | 32.7 |  |
| Cc1cccc(NS(=O)(=O)c2ccc(-c3ccc(F)c(F)c3)c(C)c2)n1 [Example 244] |  | inhibition at 0.1 µM (compound at 0.1 uM): 86% |
| Cc1cccc(NS(=O)(=O)c2ccc(/C=C/c3ccccc3)cc2)n1 [Example 151] | 59.8 |  |
| Cc1cccc(NS(=O)(=O)c2ccc(-c3ccc(C(C)(C)C)cc3)cc2C)n1 [Example 175] | 59 |  |
| Cc1cccc(NS(=O)(=O)N2CCC(c3ccccc3)(c3ccccc3)CC2)n1 [Example 307] |  | inhibition at 0.1 µM (compound at 0.1 uM): 29.5% |
| Cc1cccc(NS(=O)(=O)Cc2cccc(Cl)c2)n1 [Example 67] | 49.6 |  |
| Cc1cccc(NS(=O)(=O)N2Cc3ccccc3C2)n1 [Example 298] |  | inhibition at 0.1 µM (compound at 0.1 uM): 13.3% |
| CCN(CC)C(=O)Cc1cc(C)cc(NS(=O)(=O)c2cccc(Cl)c2C)n1 [Example 15] | 23.6 |  |
| Cc1c(Cl)cccc1S(=O)(=O)Nc1cccc(CC(=O)N2CCSCC2)n1 [Example 10] | 38.7 |  |
| Cc1cc(CC(=O)N2CCCCC2)nc(NS(=O)(=O)c2cccc(Cl)c2C)c1 [Example 14] | 25.9 |  |

Continued, in another order:

| inhibition at 0.1 µM (0.1 uM) [%] | Structure (SMILES) | further results |
| --- | --- | --- |
| 71 | Cc1cccc(NS(=O)(=O)c2ccc(-c3ccc(S(C)(=O)=O)cc3)cc2)n1 [Example 158] |  |
| 61.7 | Cc1cccc(NS(=O)(=O)c2ccc(-c3cccc(C#N)c3)cc2)n1 [Example 132] |  |
| 61.4 | CCOc1cccc(-c2ccc(S(=O)(=O)Nc3cccc(C)n3)cc2)c1 [Example 121] |  |
| 79.3 | Cc1cccc(NS(=O)(=O)c2ccc(-c3ccc(F)c(C)c3)cc2)n1 [Example 150] |  |
| 100 | Cc1cccc(NS(=O)(=O)c2ccc(-c3cc(Cl)cc(Cl)c3)cc2)n1 [Example 131] |  |
| 15.6 | CCc1cccc(NS(=O)(=O)c2ccc(C(C)C)cc2)n1 [Example 76] |  |
| 84.5 | Cc1cccc(NS(=O)(=O)c2ccc(-c3ccc(F)cc3F)cc2)n1 [Example 142] |  |
| 23.4 | COc1ccc(S(=O)(=O)Nc2cccc(C)n2)cc1 [Example 81] |  |
| 11.3 | Cc1c(Cl)cccc1S(=O)(=O)Nc1cccc(CC(=O)N(C)C)n1 [Example 31] |  |
| 71.7 | COc1ccccc1-c1ccc(S(=O)(=O)Nc2cccc(C)n2)cc1 [Example 120] |  |
| 83.8 | CCSc1ccc(-c2ccc(S(=O)(=O)Nc3cccc(C)n3)cc2)cc1 [Example 141] |  |
| 57.2 | CC(=O)c1cccc(-c2ccc(S(=O)(=O)Nc3cccc(C)n3)cc2)c1 [Example 148] |  |
| 8.1 | CN(C)Cc1cccc(NS(=O)(=O)c2ccc(-c3ccc(C#N)cc3)cc2)n1 [Example 79] |  |
| 15.9 | Cc1c(Cl)cccc1S(=O)(=O)Nc1cccc(CC(=O)N(C)C(C)C)n1 [Example 30] |  |
| 4.9 | CCN(CC)C(=O)Cc1cccc(NS(=O)(=O)c2ccc(C)cc2)n1 [Example 23] |  |
| 49.1 | COc1ccc(-c2ccc(S(=O)(=O)Nc3cccc(C)n3)cc2)c(OC)c1 [Example 135] |  |
| 77.6 | Cc1cccc(NS(=O)(=O)c2ccc(-c3ccccc3C)cc2)n1 [Example 126] |  |
| 83.5 | Cc1cccc(NS(=O)(=O)c2ccc(-c3cc(Cl)ccc3Cl)cc2)n1 [Example 134] |  |
| 46.5 | Cc1cccc(NS(=O)(=O)c2ccc(-c3ccc(CO)cc3)cc2)n1 [Example 146] |  |
| 29.5 | COc1ccc(F)cc1-c1ccc(S(=O)(=O)Nc2cccc(C)n2)cc1 [Example 147] |  |
| 100 | C=Cc1ccc(-c2ccc(S(=O)(=O)Nc3cccc(C)n3)cc2)cc1 [Example 127] |  |
| 84 | Cc1ccc(-c2ccc(S(=O)(=O)Nc3cccc(C)n3)cc2)cc1 [Example 124] |  |
| 25.2 | Cc1c(Cl)cccc1S(=O)(=O)Nc1cccc(CC(=O)O)n1 [Example 26, [6-(3-Chloro-2-methyl-benzenesulfonylamino)-pyridin-2-yl]-acetic acid] |  |
| 87.8 | Cc1cccc(NS(=O)(=O)c2ccc(-c3ccccc3Cl)cc2)n1 [Example 125] |  |
